From patent publication US4798787A, “Peptide antibodies and their use in detecting oncogene products” (Cetus Corporation, priority 1984, dated 1989)

Target: T1, p21 protein (v-Ki-ras p21, serine at position 12) (Kirsten murine sarcoma virus, UniProt P01117)
T1 construct: made in house; host or cells: E. coli (plasmid pINIII-ras, gift of M. Inouye, printed 'Inouge')
Assay: Inhibition by nucleotides of anti-p21ser antibody binding to p21 protein under mild denaturation conditions
Conditions: 10 mM nucleotide
Excerpt: An alternative explanation is that the antibody binds at some distance from the GTP binding site and yet alters GTP binding by disturbing the tertiary structure of the protein. […] The invention herein is not limited to either explanation.

T1 sequence (P01117 whole entry): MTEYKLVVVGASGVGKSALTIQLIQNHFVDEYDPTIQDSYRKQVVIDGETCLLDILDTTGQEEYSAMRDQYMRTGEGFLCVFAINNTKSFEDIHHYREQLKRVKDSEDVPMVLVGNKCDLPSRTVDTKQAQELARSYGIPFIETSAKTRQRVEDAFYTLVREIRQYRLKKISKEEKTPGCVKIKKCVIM

Nc1ncnc2c1ncn2[C@@H]1O[C@H](COP(=O)(O)OP(=O)(O)OP(=O)(O)O)[C@@H](O)[C@H]1O [ATP] was tested, and the “inhibition of the binding of anti-p21ser antibodies to p21 protein” value was “not”.
With Nc1nc2c(ncn2[C@@H]2O[C@H](COP(=O)(O)OP(=O)(O)OP(=O)(O)O)[C@@H](O)[C@H]2O)c(=O)[nH]1 [GTP, guanosine triphosphate] the “inhibition of the binding of anti-p21ser antibodies to p21 protein” value was “substantially inhibit”.
